Source: patent US20220177508A1, “C10-Cyclic Substituted 13-Membered Macrolides and Uses Thereof” (Zikani Therapeutics, Inc., priority 2018, published 2022)
In brackets after ≈: the same amount, converted by molar mass.

Key:
Assay type in all cases: cell-based
P. aeruginosa MP-3 = test: Broth dilution MIC determination (CLSI), P. aeruginosa MP-3; conditions: Pseudomonas aeruginosa, MP3; strain MP-3, broth dilution
K. pneumoniae MP-648 = test: Broth dilution MIC determination (CLSI), K. pneumoniae MP-648; conditions: Klebsiella pneumoniae, MP648; strain MP-648, broth dilution
E. coli MP-4 = test: Broth dilution MIC determination (CLSI), E. coli MP-4; conditions: Escherichia coli, MP4; strain MP-4, broth dilution; read-out: MIC E. coli MP-4
K. pneumoniae MP-546 = test: Broth dilution MIC determination (CLSI), K. pneumoniae MP-546; conditions: Klebsiella pneumoniae, MP546; strain MP-546, broth dilution
S. aureus MP-12 = test: Broth dilution MIC determination (CLSI), S. aureus MP-12; conditions: Staphylococcus aureus, MP12; strain MP-12, broth dilution
A. baumannii MP-15 = test: Broth dilution MIC determination (CLSI), A. baumannii MP-15; conditions: Acinetobacter baumannii, MP15; strain MP-15, broth dilution; read-out: MIC A. baumanii MP-15

Row | MIC (P. aeruginosa MP-3) | MIC (K. pneumoniae MP-648) | MIC (E. coli MP-4) | MIC (K. pneumoniae MP-546) | MIC (S. aureus MP-12) | MIC (A. baumannii MP-15) | SMILES
1 | > 32 µg/mL | 4 to 32 µg/mL (≈ 5.99 to 47.9 µM) | < 4 µg/mL | < 4 µg/mL | > 32 µg/mL | > 32 µg/mL | CO[C@]1(C)C[C@@H](C)CN(C)[C@H]([C@H]2C[C@@H](N(C)CC3CCCO3)C2)COC(=O)C(C)(C)C(=O)[C@H](C)[C@H]1O[C@@H]1O[C@H](C)C[C@H](N(C)C)[C@H]1O (stereo partly drawn) [Compound 31, (3R,6R,8R,9R,10R)-9-(((2S,3R,4S,6R)-4-(dimethylamino)-3-hydroxy-6-methyltetrahydro-2H-pyran-2-yl)oxy)-8-methoxy-4,6,8,10,12,12-hexamethyl-3-((1s,3S)-3-(methyl((tetrahydrofuran-2-yl)methyl)amino)cyclobutyl)-1-oxa-4-azacyclotridecane-11,13-dione]
2 | > 32 µg/mL | 4 to 32 µg/mL (≈ 6.37 to 51 µM) | < 4 µg/mL | 4 to 32 µg/mL (≈ 6.37 to 51 µM) | > 32 µg/mL | > 32 µg/mL | COCC(C)N1CC([C@@H]2COC(=O)C(C)(C)C(=O)[C@H](C)[C@@H](O[C@@H]3O[C@H](C)C[C@H](N(C)C)[C@H]3O)[C@](C)(OC)C[C@@H](C)CN2C)C1 (stereo partly drawn) [Compound 32, (3R,6R,8R,9R,10R)-9-(((2S,3R,4S,6R)-4-(dimethylamino)-3-hydroxy-6-methyltetrahydro-2H-pyran-2-yl)oxy)-8-methoxy-3-(1-(1-methoxypropan-2-yl)azetidin-3-yl)-4,6,8,10,12,12-hexamethyl-1-oxa-4-azacyclotridecane-11,13-dione]
3 | > 32 µg/mL | 4 to 32 µg/mL (≈ 6.56 to 52.5 µM) | < 4 µg/mL | < 4 µg/mL | 4 to 32 µg/mL (≈ 6.56 to 52.5 µM) | > 32 µg/mL | CO[C@]1(C)C[C@@H](C)CN(C)[C@H](C2CN(CC3CC3)C2)COC(=O)C(C)(C)C(=O)[C@H](C)[C@H]1O[C@@H]1O[C@H](C)C[C@H](N(C)C)[C@H]1O [Compound 37, (3R,6R,8R,9R,10R)-3-(1-(cyclopropylmethyl)azetidin-3-yl)-9-(((2S,3R,4S,6R)-4-(dimethylamino)-3-hydroxy-6-methyltetrahydro-2H-pyran-2-yl)oxy)-8-methoxy-4,6,8,10,12,12-hexamethyl-1-oxa-4-azacyclotridecane-11,13-dione]
4 | > 32 µg/mL | 4 to 32 µg/mL (≈ 5.98 to 47.8 µM) | < 4 µg/mL | < 4 µg/mL | 4 to 32 µg/mL (≈ 5.98 to 47.8 µM) | > 32 µg/mL | CO[C@]1(C)C[C@@H](C)CN(C)[C@H](C2CN(C(=O)CNC(C)(C)C)C2)COC(=O)C(C)(C)C(=O)[C@H](C)[C@H]1O[C@@H]1O[C@H](C)C[C@H](N(C)C)[C@H]1O [Compound 41, (3R,6R,8R,9R,10R)-3-(1-(tert-butylglycyl)azetidin-3-yl)-9-(((2S,3R,4S,6R)-4-(dimethylamino)-3-hydroxy-6-methyltetrahydro-2H-pyran-2-yl)oxy)-8-methoxy-4,6,8,10,12,12-hexamethyl-1-oxa-4-azacyclotridecane-11,13-dione]
5 | > 32 µg/mL | 4 to 32 µg/mL (≈ 6.16 to 49.2 µM) | < 4 µg/mL | < 4 µg/mL | 4 to 32 µg/mL (≈ 6.16 to 49.2 µM) | > 32 µg/mL | CO[C@]1(C)C[C@@H](C)CN(C)[C@H](C2CN(Cc3cnn(C)c3)C2)COC(=O)C(C)(C)C(=O)[C@H](C)[C@H]1O[C@@H]1O[C@H](C)C[C@H](N(C)C)[C@H]1O [Compound 49, (3R,6R,8R,9R,10R)-9-(((2S,3R,4S,6R)-4-(dimethylamino)-3-hydroxy-6-methyltetrahydro-2H-pyran-2-yl)oxy)-8-methoxy-4,6,8,10,12,12-hexamethyl-3-(1-((1-methyl-1H-pyrazol-4-yl)methyl)azetidin-3-yl)-1-oxa-4-azacyclotridecane-11,13-dione]
6 | > 32 µg/mL | 4 to 32 µg/mL (≈ 6.11 to 48.9 µM) | 4 to 32 µg/mL (≈ 6.11 to 48.9 µM) | 4 to 32 µg/mL (≈ 6.11 to 48.9 µM) | 4 to 32 µg/mL (≈ 6.11 to 48.9 µM) | > 32 µg/mL | CO[C@]1(C)C[C@@H](C)CN(C)[C@H](C2CN(C(=O)CCN(C)C)C2)COC(=O)C(C)(C)C(=O)[C@H](C)[C@H]1O[C@@H]1O[C@H](C)C[C@H](N(C)C)[C@H]1O [Compound 50, (3R,6R,8R,9R,10R)-9-(((2S,3R,4S,6R)-4-(dimethylamino)-3-hydroxy-6-methyltetrahydro-2H-pyran-2-yl)oxy)-3-(1-(3-(dimethylamino)propanoyl)azetidin-3-yl)-8-methoxy-4,6,8,10,12,12-hexamethyl-1-oxa-4-azacyclotridecane-11,13-dione]
7 | > 32 µg/mL | 4 to 32 µg/mL (≈ 6.39 to 51.1 µM) | < 4 µg/mL | < 4 µg/mL | 4 to 32 µg/mL (≈ 6.39 to 51.1 µM) | 4 to 32 µg/mL (≈ 6.39 to 51.1 µM) | CO[C@]1(C)C[C@@H](C)CN(C)[C@H](C2CN(CCC(C)C)C2)COC(=O)C(C)(C)C(=O)[C@H](C)[C@H]1O[C@@H]1O[C@H](C)C[C@H](N(C)C)[C@H]1O [Compound 51, (3R,6R,8R,9R,10R)-9-(((2S,3R,4S,6R)-4-(dimethylamino)-3-hydroxy-6-methyltetrahydro-2H-pyran-2-yl)oxy)-3-(1-isopentylazetidin-3-yl)-8-methoxy-4,6,8,10,12,12-hexamethyl-1-oxa-4-azacyclotridecane-11,13-dione]
8 | > 32 µg/mL | > 32 µg/mL | 4 to 32 µg/mL (≈ 6.17 to 49.4 µM) | 4 to 32 µg/mL (≈ 6.17 to 49.4 µM) | 4 to 32 µg/mL (≈ 6.17 to 49.4 µM) | > 32 µg/mL | CO[C@]1(C)C[C@@H](C)CN(C)[C@H](C2CN(Cc3cnccn3)C2)COC(=O)C(C)(C)C(=O)[C@H](C)[C@H]1O[C@@H]1O[C@H](C)C[C@H](N(C)C)[C@H]1O [Compound 55, (3R,6R,8R,9R,10R)-9-(((2S,3R,4S,6R)-4-(dimethylamino)-3-hydroxy-6-methyltetrahydro-2H-pyran-2-yl)oxy)-8-methoxy-4,6,8,10,12,12-hexamethyl-3-(1-(pyrazin-2-ylmethyl)azetidin-3-yl)-1-oxa-4-azacyclotridecane-11,13-dione]
9 | > 32 µg/mL | 4 to 32 µg/mL (≈ 5.99 to 47.9 µM) | < 4 µg/mL | 4 to 32 µg/mL (≈ 5.99 to 47.9 µM) | 4 to 32 µg/mL (≈ 5.99 to 47.9 µM) | > 32 µg/mL | CCCN1C[C@H](C)C[C@@](C)(OC)[C@H](O[C@@H]2O[C@H](C)C[C@H](N(C)C)[C@H]2O)[C@@H](C)C(=O)C(C)(C)C(=O)OC[C@H]1[C@H]1C[C@H](N(C)CC(C)C)C1 [Compound 60, (3R,6R,8R,9R,10R)-9-(((2S,3R,4S,6R)-4-(dimethylamino)-3-hydroxy-6-methyltetrahydro-2H-pyran-2-yl)oxy)-3-((1r,3R)-3-(isobutyl(methyl)amino)cyclobutyl)-8-methoxy-6,8,10,12,12-pentamethyl-4-propyl-1-oxa-4-azacyclotridecane-11,13-dione]
10 | > 32 µg/mL | > 32 µg/mL | 4 to 32 µg/mL (≈ 5.64 to 45.1 µM) | 4 to 32 µg/mL (≈ 5.64 to 45.1 µM) | > 32 µg/mL | > 32 µg/mL | CO[C@]1(C)C[C@@H](C)CN(C)[C@H](C2CN(C(=O)CCCN(C)CC3CC3)C2)COC(=O)C(C)(C)C(=O)[C@H](C)[C@H]1O[C@@H]1O[C@H](C)C[C@H](N(C)C)[C@H]1O [Compound 61, (3R,6R,8R,9R,10R)-3-(1-(4-((cyclopropylmethyl)(methyl)amino)butanoyl)azetidin-3-yl)-9-(((2S,3R,4S,6R)-4-(dimethylamino)-3-hydroxy-6-methyltetrahydro-2H-pyran-2-yl)oxy)-8-methoxy-4,6,8,10,12,12-hexamethyl-1-oxa-4-azacyclotridecane-11,13-dione]
11 | > 32 µg/mL | 4 to 32 µg/mL (≈ 6.14 to 49.1 µM) | < 4 µg/mL | < 4 µg/mL | 4 to 32 µg/mL (≈ 6.14 to 49.1 µM) | > 32 µg/mL | CO[C@]1(C)C[C@@H](C)CN(C)[C@@H](C2CCN(CC3CCC3)CC2)COC(=O)C(C)(C)C(=O)[C@H](C)[C@H]1O[C@@H]1O[C@H](C)C[C@H](N(C)C)[C@H]1O [Compound 69, (3S,6R,8R,9R,10R)-3-(1-(cyclobutylmethyl)piperidin-4-yl)-9-(((2S,3R,4S,6R)-4-(dimethylamino)-3-hydroxy-6-methyltetrahydro-2H-pyran-2-yl)oxy)-8-methoxy-4,6,8,10,12,12-hexamethyl-1-oxa-4-azacyclotridecane-11,13-dione]
12 | > 32 µg/mL | < 4 µg/mL | 4 to 32 µg/mL (≈ 6.54 to 52.3 µM) | < 4 µg/mL | 4 to 32 µg/mL (≈ 6.54 to 52.3 µM) | > 32 µg/mL | CCN(C)[C@H]1C[C@H]([C@@H]2COC(=O)C(C)(C)C(=O)[C@H](C)[C@@H](O[C@@H]3O[C@H](C)C[C@H](N(C)C)[C@H]3O)[C@](C)(OC)C[C@@H](C)CN2C)C1 [Compound 71, (3R,6R,8R,9R,10R)-9-(((2S,3R,4S,6R)-4-(dimethylamino)-3-hydroxy-6-methyltetrahydro-2H-pyran-2-yl)oxy)-3-((1r,3R)-3-(ethyl(methyl)amino)cyclobutyl)-8-methoxy-4,6,8,10,12,12-hexamethyl-1-oxa-4-azacyclotridecane-11,13-dione]
13 | > 32 µg/mL | 4 to 32 µg/mL (≈ 5.73 to 45.8 µM) | < 4 µg/mL | < 4 µg/mL | 4 to 32 µg/mL (≈ 5.73 to 45.8 µM) | > 32 µg/mL | CO[C@]1(C)C[C@@H](C)CN(C)[C@@H](C2CCN(C[C@H]3COC(C)(C)O3)CC2)COC(=O)C(C)(C)C(=O)[C@H](C)[C@H]1O[C@@H]1O[C@H](C)C[C@H](N(C)C)[C@H]1O [Compound 86, (3S,6R,8R,9R,10R)-3-(1-(((S)-2,2-dimethyl-1,3-dioxolan-4-yl)methyl)piperidin-4-yl)-9-(((2S,3R,4S,6R)-4-(dimethylamino)-3-hydroxy-6-methyltetrahydro-2H-pyran-2-yl)oxy)-8-methoxy-4,6,8,10,12,12-hexamethyl-1-oxa-4-azacyclotridecane-11,13-dione]
